Assay results as given in patent US11230527B2, “Solid forms of 2-(5-(4-(2-morpholinoethoxy)phenyl)pyridin-2-yl)-n- benzylacetamide” (Athenex HK Innovative Limited, priority 2017, dated 2022).
Converted amounts (≈) assume the structure as drawn. Like-named read-outs stand apart in the source and are kept apart here.

What was measured:
Type in all cases: physicochemical
[1] = XRPD physical form stability under storage conditions; settings: up to eight weeks
Description: XRPD analysis is carried out using a diffractometer running in reflection mode. The 2-theta position is calibrated against a standard before running the experiment. XRPD analysis was carried out on a Panalytical X'Pert^3 Powder XRPD on a Si zero-background holder, scanning the samples between 3 and 40° 2-theta. The 2-theta position was calibrated against Panalytical 640 Si powder standard. The test material was gently compressed on a glass disc inserted into a sample holder. The sample was then loaded into a Panalytical X'Pert^3 Powder XRPD diffractometer running in reflection mode and analyzed, using the following experimental conditions.

[2] = Dynamic Vapor Sorption (DVS); settings: for XRPD pattern after exposure to DVS experiment: 25° C. and RH up to 95%; for water uptake: between 0 and 80% RH at between 25° C. and 45° C.
Description: Dynamic Vapor Sorption (DVS) was measured using a SMS (Surface Measurement Systems) DVS Intrinsic. The test was performed at 25° C. while the RH was varied from 0% to 95% at 10% increments in the range of 0% RH-90% RH and at 5% increment up to 95% RH. The change in mass after each increase or decrease in the RH was recorded as a percentage of the original mass of the starting material. Dynamic Vapor Sorption (DVS) was measured using a SMS (Surface Measurement Systems) DVS Intrinsic, using the following parameters: [table]

[3] = Solubility estimation
Description: Solubility of the solid forms of the present application in a variety of solvents is measured. Solvent is added to a sample until the total volume reaches 100 μL, followed by 100 μL per step until the sample is dissolved or the concentration is less than <1.0 mg/mL. The approximate solubility is then calculated.
Solubility of the solid forms of the present application in a variety of solvents was measured according to the following procedures. A sample (˜2 mg) was weighed into a 4-mL glass vial. Solvent was added into the vial stepwise at 50 μL per step until the total volume was 100 μL, followed by 100 μL per step until concentration was less than 1.0 mg/mL. The solutions were mixed thoroughly after each addition by sonication for 2 minutes and vortexing for 1 minute. The addition of solvent was complete if the sample was dissolved or the concentration was <1.0 mg/mL. The volumes of solvent (V1 and V2) were recorded, and approximate solubility was calculated.

[4] = HPLC chemical stability after storage at various conditions; settings: for Area Percent at 248 nm T1 week: 1 week; for Area Percent at 248 nm T2 week: 2 weeks; for Area Percent at 248 nm T4 week: 4 weeks; for Area Percent at 248 nm T8 week: 8 weeks; for change in HPLC area percent purity (LCAP): selected storage conditions, time points over eight-week study
Description: High-performance Liquid Chromatography (HPLC) analysis was performed to determine the chemical stability of Forms A, B, and C of Compound A after storage at various conditions, using an Agilent 1100 system with DAD. Chemical stability was estimated by measuring and comparing the area percent of the material peak at various time points. For High-performance Liquid Chromatography (HPLC) analysis, an Agilent 1100 system with DAD was used.

[5] = XRPD after air-drying or vacuum drying
Description: XRPD analysis was carried out on a Panalytical X'Pert^3 Powder XRPD on a Si zero-background holder, scanning the samples between 3 and 40° 2-theta. The 2-theta position was calibrated against Panalytical 640 Si powder standard. The test material was gently compressed on a glass disc inserted into a sample holder. The sample was then loaded into a Panalytical X'Pert^3 Powder XRPD diffractometer running in reflection mode and analyzed, using the following experimental conditions.

## O=C(Cc1ccc(-c2ccc(OCCN3CCOCC3)cc2)cn1)NCc1ccccc1 [Form C, 2-(5-(4-(2-morpholinoethoxy)phenyl)pyridin-2-yl)-N-benzylacetamide]
[1]; 25° C./60% RH
  change in physical form (XRPD): no change in physical form
[1]; 40° C./75% RH
  change in physical form (XRPD): no change in physical form
[1]; 55° C./75% RH
  change in physical form (XRPD): no change in physical form
[1]; ambient conditions
  change in physical form (XRPD): no change in physical form
[2]
  hygroscopicity: non-hygroscopic
  XRPD pattern after exposure to DVS experiment: does not change
  water uptake: less than 0.2 % w/w
[3]; 1,4-Dioxane, organic solvent or mixture, thermodynamic from solid, 1,4-Dioxane, read-out: Solubility
  solubility: 12600 to 25100 µg/mL (≈ 29.2 to 58.2 mM)
[3]; 2-MeTHF, organic solvent or mixture, thermodynamic from solid, 2-MeTHF, read-out: Solubility
  solubility: 5100 to 6380 µg/mL (≈ 11.8 to 14.8 mM)
[3]; ACN, organic solvent or mixture, thermodynamic from solid, ACN, read-out: Solubility
  solubility: 4430 to 5540 µg/mL (≈ 10.3 to 12.8 mM)
[3]; Acetone, organic solvent or mixture, thermodynamic from solid, Acetone, read-out: Solubility
  solubility: 5690 to 8590 µg/mL (≈ 13.2 to 19.9 mM)
[3]; CHCl3, organic solvent or mixture, thermodynamic from solid, CHCl3, read-out: Solubility
  solubility: 25900 to 51800 µg/mL (≈ 60 to 120 mM)
[3]; DCM, organic solvent or mixture, thermodynamic from solid, DCM, read-out: Solubility
  solubility: 1330 to 1440 µg/mL (≈ 3.08 to 3.34 mM)
[3]; EtOAc, organic solvent or mixture, thermodynamic from solid, EtOAc, read-out: Solubility
  solubility: 2370 to 2630 µg/mL (≈ 5.49 to 6.09 mM)
[3]; EtOH, organic solvent or mixture, thermodynamic from solid, EtOH, read-out: Solubility
  solubility: 5140 to 6420 µg/mL (≈ 11.9 to 14.9 mM)
[3]; H2O, water, thermodynamic from solid, H2O, read-out: Solubility
  solubility: < 1000 µg/mL
[3]; IPA, organic solvent or mixture, thermodynamic from solid, IPA, read-out: Solubility
  solubility: 1300 to 1390 µg/mL (≈ 3.01 to 3.22 mM)
[3]; IPAc, organic solvent or mixture, thermodynamic from solid, IPAc, read-out: Solubility
  solubility: 1080 to 1150 µg/mL (≈ 2.5 to 2.66 mM)
[3]; MIBK, organic solvent or mixture, thermodynamic from solid, MIBK, read-out: Solubility
  solubility: 1610 to 1760 µg/mL (≈ 3.73 to 4.08 mM)
[3]; MTBE, heated to 50° C.
  solubility: soluble
[3]; MTBE, organic solvent or mixture, thermodynamic from solid, MTBE, read-out: Solubility
  solubility: < 1000 µg/mL
[3]; MTBE, room temperature
  solubility: insoluble
[3]; MeOH, organic solvent or mixture, thermodynamic from solid, MeOH, read-out: Solubility
  solubility: 9580 to 19200 µg/mL (≈ 22.2 to 44.4 mM)
[3]; THF, organic solvent or mixture, thermodynamic from solid, THF, read-out: Solubility
  solubility: 11000 to 22000 µg/mL (≈ 25.5 to 51 mM)
[3]; n-Heptane, organic solvent or mixture, thermodynamic from solid, n-Heptane, read-out: Solubility
  solubility: < 1000 µg/mL
[3]; n-heptane, organic solvent or mixture, thermodynamic from solid, n-heptane, room temperature and when heated to 50° C., read-out: Solubility
  solubility: < 1000 µg/mL
[3]; organic solvent or mixture, thermodynamic from solid, methanol, ethanol, isopropanol, acetone, MIBK, ethyl acetate, isopropyl acetate, tetrahydrofuran, 2-Me-THF, 1,4-dioxane, acetonitrile, dichloromethane, chloroform, toluene, room temperature and 50° C., read-out: Solubility
  solubility: > 1000 µg/mL
[3]; toluene, organic solvent or mixture, thermodynamic from solid, toluene, read-out: Solubility
  solubility: 1510 to 1610 µg/mL (≈ 3.5 to 3.73 mM)
[3]; water, thermodynamic from solid, aqueous solution (water), room temperature and when heated to 50° C., read-out: Solubility
  solubility: < 1000 µg/mL
[4]; 25° C./60% RH
  Area Percent at 248 nm T1 week: 99.9 Area Percent
  Area Percent at 248 nm T2 week: 99.9 Area Percent
  Area Percent at 248 nm T4 week: 99.8 Area Percent
  Area Percent at 248 nm T8 week: 99.9 Area Percent
  Area Percent at 248 nm T0: 99.8 Area Percent
[4]; 40° C./75% RH
  Area Percent at 248 nm T1 week: 99.8 Area Percent
  Area Percent at 248 nm T2 week: 99.8 Area Percent
  Area Percent at 248 nm T4 week: 99.9 Area Percent
  Area Percent at 248 nm T8 week: 99.9 Area Percent
  Area Percent at 248 nm T0: 99.8 Area Percent
[4]; 55° C./75% RH
  Area Percent at 248 nm T1 week: 99.9 Area Percent
  Area Percent at 248 nm T2 week: 99.8 Area Percent
  Area Percent at 248 nm T4 week: 99.8 Area Percent
  Area Percent at 248 nm T8 week: 99.9 Area Percent
  Area Percent at 248 nm T0: 99.8 Area Percent
[4]; Ambient
  Area Percent at 248 nm T1 week: 99.8 Area Percent
  Area Percent at 248 nm T2 week: 99.8 Area Percent
  Area Percent at 248 nm T4 week: 99.8 Area Percent
  Area Percent at 248 nm T8 week: 99.9 Area Percent
  Area Percent at 248 nm T0: 99.8 Area Percent
[4]
  change in HPLC area percent purity (LCAP): no significant decrease

## O=C(Cc1ccc(-c2ccc(OCCN3CCOCC3)cc2)cn1)NCc1ccccc1 [Form A, 2-(5-(4-(2-morpholinoethoxy)phenyl)pyridin-2-yl)-N-benzylacetamide]
[5]
  crystallinity after drying (XRPD): no loss of crystallinity
[1]; 25° C./60% RH
  change in physical form (XRPD): no change in physical form
[1]; 40° C./75% RH
  change in physical form (XRPD): no change in physical form
[1]; 55° C./75% RH
  change in physical form (XRPD): no change in physical form
[1]; ambient conditions
  change in physical form (XRPD): no change in physical form
[2]
  hygroscopicity: non-hygroscopic
  XRPD pattern after exposure to DVS experiment: does not change
  water uptake: less than 0.2 % w/w
[3]; aqueous, thermodynamic from solid
  solubility thermodynamic: < 1500 µg/mL
[3]; water, thermodynamic from solid, aqueous solution (e.g., water), room temperature, read-out: aqueous solubility (dissolved completely)
  solubility: > 20000 µg/mL
[4]; 25° C./60% RH
  Area Percent at 248 nm T1 week: 99.8 Area Percent
  Area Percent at 248 nm T2 week: 99.8 Area Percent
  Area Percent at 248 nm T4 week: 99.8 Area Percent
  Area Percent at 248 nm T8 week: 99.8 Area Percent
  Area Percent at 248 nm T0: 99.8 Area Percent
[4]; 40° C./75% RH
  Area Percent at 248 nm T1 week: 99.8 Area Percent
  Area Percent at 248 nm T2 week: 99.8 Area Percent
  Area Percent at 248 nm T4 week: 99.8 Area Percent
  Area Percent at 248 nm T8 week: 99.8 Area Percent
  Area Percent at 248 nm T0: 99.8 Area Percent
[4]; 55° C./75% RH
  Area Percent at 248 nm T1 week: 99.8 Area Percent
  Area Percent at 248 nm T2 week: 99.8 Area Percent
  Area Percent at 248 nm T4 week: 99.7 Area Percent
  Area Percent at 248 nm T8 week: 99.8 Area Percent
  Area Percent at 248 nm T0: 99.8 Area Percent
[4]; Ambient
  Area Percent at 248 nm T1 week: 99.8 Area Percent
  Area Percent at 248 nm T2 week: 99.7 Area Percent
  Area Percent at 248 nm T4 week: 99.7 Area Percent
  Area Percent at 248 nm T8 week: 99.7 Area Percent
  Area Percent at 248 nm T0: 99.8 Area Percent
[4]
  change in HPLC area percent purity (LCAP): no significant decrease
